Patent US8420633B2 (Hoffmann-La Roche Inc., priority 2010, dated 2013)
Where a name gives a salt, the structure may show the parent alone. Read-outs that look alike come from different tables or passages of the source.

Biological target: T1, human V1a receptor (Homo sapiens, UniProt P37288)
T1 construct: expressed in transfected cells; host or cells: HEK293 cells, transiently transfected; membranes prepared
Assay: human V1a receptor binding (3H-Vasopressin SPA, HEK293 membranes)
Description: The human V1a receptor was cloned by RT-PCR from total human liver RNA. The coding sequence was subcloned in an expression vector after sequencing to confirm the identity of the amplified sequence. […] Cell membranes were prepared from HEK293 cells transiently transfected with the expression vector and grown in 20 liter fermenters with the following protocol.
50 g of cells are resuspended in 30 ml freshly prepared ice cold Lysis buffer (50 mM HEPES, 1 mM EDTA, 10 mM magnesium dichloride adjusted to pH=7.4+complete cocktail of protease inhibitor (Roche Diagnostics)). Homogenized with Polytron for 1 min and sonicated on ice for 2×2 minutes at 80% intensity (Vibracell sonicator). The preparation is centrifuged 20 min at 500 g at 4° C., the pellet is discarded and the supernatant centrifuged 1 hour at 43,000 g at 4° C. (19,000 rpm). The pellet is resuspended in 12.5 ml Lysis buffer+12.5 ml sucrose 20% and homogenized using a Polytron for 1-2 min. The protein concentration is determined by the Bradford method and aliquots are stored at −80° C. until use. For binding studies 60 mg Yttrium silicate SPA beads (Amersham®) are mixed with an aliquot of membrane in binding buffer (50 mM Tris, 120 mM sodium chloride, 5 mM potassium chloride, 2 mM calcium dichloride, 10 mM magnesium dichloride) for 15 minutes with mixing. 50 μl of bead/membrane mixture is then added to each well of a 96 well plate, followed by 50 μl of 4 nM 3H-Vasopressin (American Radiolabeled Chemicals). For total binding measurement 100 μl of binding buffer are added to the respective wells, for non-specific binding 100 μl of 8.4 mM cold vasopressin and for compound testing 100 μl of a serial dilution of each compound in 2% dimethyl sulfoxide. The plate is incubated 1 h at room temperature, centrifuged 1 min at 1000 g and counted on a Packard Top-Count. Non-specific binding counts are subtracted from each well and data is normalized to the maximum specific binding set at 100%. To calculate an IC50 the curve is fitted using a non-linear regression model (XLfit) and the Ki is calculated using the Cheng-Prussoff equation.

[1] = 3H-Vasopressin displacement, membranes of HEK293 cells transiently transfected with human V1a, Ki from IC50 by Cheng-Prussoff, read-out: pKi (hV1a) (converted)

T1 sequence (P37288 whole entry): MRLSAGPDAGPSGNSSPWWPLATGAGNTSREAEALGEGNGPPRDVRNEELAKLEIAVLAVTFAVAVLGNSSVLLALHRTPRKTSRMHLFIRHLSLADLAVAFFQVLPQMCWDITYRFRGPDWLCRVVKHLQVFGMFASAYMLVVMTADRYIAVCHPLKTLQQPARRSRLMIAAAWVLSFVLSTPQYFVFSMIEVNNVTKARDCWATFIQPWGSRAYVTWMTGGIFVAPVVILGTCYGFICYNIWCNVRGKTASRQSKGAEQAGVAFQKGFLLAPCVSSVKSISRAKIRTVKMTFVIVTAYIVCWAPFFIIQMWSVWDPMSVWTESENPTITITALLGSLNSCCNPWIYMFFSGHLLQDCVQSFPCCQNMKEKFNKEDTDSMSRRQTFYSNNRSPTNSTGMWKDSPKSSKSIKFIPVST

| Compound | Ki [1] [nM] | Ki [nM] |
| --- | --- | --- |
| CC(C)(C)OC(=O)N1Cc2cc(Cl)ccc2-n2c(nnc2[C@H]2CC[C@H](c3ccccc3)CC2)C1 [Example 1, trans-8-Chloro-1-(4-phenyl-cyclohexyl)-4H,6H-2,3,5,10b-tetraaza-benzo[e]azulene-5-carboxylic acid tert-butyl ester] | 6.46 | – |
| Clc1ccc2c(c1)CNCc1nnc([C@H]3CC[C@H](c4ccccc4)CC3)n1-2 [Example 2, trans-8-Chloro-1-(4-phenyl-cyclohexyl)-5,6-dihydro-4H-2,3,5,10b-tetraaza-benzo[e]azulene hydrochloride] | 2.09 | – |
| CN1Cc2cc(Cl)ccc2-n2c(nnc2[C@H]2CC[C@H](c3ccccc3)CC2)C1 [Example 3, trans-8-Chloro-5-methyl-1-(4-phenyl-cyclohexyl)-5,6-dihydro-4H-2,3,5,10b-tetraaza-benzo[e]azulene] | – | 0.794 |
| Cc1ccccc1[C@H]1CC[C@@H](c2nnc3n2-c2ccc(Cl)cc2CN(C)C3)CC1 [Example 4, cis-8-Chloro-5-methyl-1-(4-o-tolyl-cyclohexyl)-5,6-dihydro-4H-2,3,5,10b-tetraaza-benzo[e]azulene] | 16.2 | – |
| Cc1ccccc1[C@H]1CC[C@H](c2nnc3n2-c2ccc(Cl)cc2CN(C)C3)CC1 [Example 5, trans-8-Chloro-5-methyl-1-(4-o-tolyl-cyclohexyl)-5,6-dihydro-4H-2,3,5,10b-tetraaza-benzo[e]azulene] | 4.27 | – |
| Cc1ccccc1[C@H]1CC[C@@H](c2nnc3n2-c2ccccc2CN(C)C3)CC1 [Example 6, cis-5-Methyl-1-(4-o-tolyl-cyclohexyl)-5,6-dihydro-4H-2,3,5,10b-tetraaza-benzo[e]azulene] | 339 | – |
| CC(C)(C)OC(=O)N1Cc2cc(Cl)ccc2-n2c(nnc2[C@H]2CC[C@@H](c3ccc(F)cc3)CC2)C1 [Example 7] | 52.5 | – |
| Fc1ccc([C@H]2CC[C@@H](c3nnc4n3-c3ccc(Cl)cc3CNC4)CC2)cc1 [Example 8, cis-8-Chloro-1-[4-(4-fluoro-phenyl)-cyclohexyl]-5,6-dihydro-4H-2,3,5,10b-tetraaza-benzo[e]azulene hydrochloride] | 302 | – |
| CN1Cc2cc(Cl)ccc2-n2c(nnc2[C@H]2CC[C@@H](c3ccc(F)cc3)CC2)C1 [Example 9, cis-8-Chloro-1-[4-(4-fluoro-phenyl)-cyclohexyl]-5-methyl-5,6-dihydro-4H-2,3,5,10b-tetraaza-benzo[e]azulene] | 30.2 | – |
| CC(C)(C)OC(=O)N1Cc2cc(Cl)ccc2-n2c(nnc2[C@H]2CC[C@H](c3ccc(F)cc3)CC2)C1 [Example 10] | 4.68 | – |
| Fc1ccc([C@H]2CC[C@H](c3nnc4n3-c3ccc(Cl)cc3CNC4)CC2)cc1 [Example 11, trans-8-Chloro-1-[4-(4-fluoro-phenyl)-cyclohexyl]-5,6-dihydro-4H-2,3,5,10b-tetraaza-benzo[e]azulene hydrochloride] | 6.31 | – |
| CN1Cc2cc(Cl)ccc2-n2c(nnc2[C@H]2CC[C@H](c3ccc(F)cc3)CC2)C1 [Example 12, trans-8-Chloro-1-[4-(4-fluoro-phenyl)-cyclohexyl]-5-methyl-5,6-dihydro-4H-2,3,5,10b-tetraaza-benzo[e]azulene] | 2.19 | – |
| CC(C)(C)OC(=O)N1Cc2cc(Cl)ccc2-n2c(nnc2[C@H]2CC[C@H](c3cccc(OC(F)(F)F)c3)CC2)C1 [Example 13, trans-8-Chloro-1-[4-(3-trifluoromethoxy-phenyl)-cyclohexyl]-4H,6H-2,3,5,10b-tetraaza-benzo[e]azulene-5-carboxylic acid tert-butyl ester] | 18.2 | – |
| FC(F)(F)Oc1cccc([C@H]2CC[C@H](c3nnc4n3-c3ccc(Cl)cc3CNC4)CC2)c1 [Example 14, trans-8-Chloro-1-[4-(3-trifluoromethoxy-phenyl)-cyclohexyl]-5,6-dihydro-4H-2,3,5,10b-tetraaza-benzo[e]azulene hydrochloride] | 57.5 | – |
| CN1Cc2cc(Cl)ccc2-n2c(nnc2[C@H]2CC[C@H](c3cccc(OC(F)(F)F)c3)CC2)C1 [Example 15, trans-8-Chloro-5-methyl-1-[4-(3-trifluoromethoxy-phenyl)-cyclohexyl]-5,6-dihydro-4H-2,3,5,10b-tetraaza-benzo[e]azulene] | 10.2 | – |
| CC(C)(C)OC(=O)N1Cc2cc(Cl)ccc2-n2c(nnc2[C@H]2CC[C@H](c3cccc(F)c3Cl)CC2)C1 [Example 16, trans-8-Chloro-1-[4-(2-chloro-3-fluoro-phenyl)-cyclohexyl]-4H,6H-2,3,5,10b-tetraaza-benzo[e]azulene-5-carboxylic acid tert-butyl ester] | 4.17 | – |
| Fc1cccc([C@H]2CC[C@H](c3nnc4n3-c3ccc(Cl)cc3CNC4)CC2)c1Cl [Example 17, trans-8-Chloro-1-[4-(2-chloro-3-fluoro-phenyl)-cyclohexyl]-5,6-dihydro-4H-2,3,5,10b-tetraaza-benzo[e]azulene hydrochloride] | 15.1 | – |
| CN1Cc2cc(Cl)ccc2-n2c(nnc2[C@H]2CC[C@H](c3cccc(F)c3Cl)CC2)C1 [Example 18, trans-8-Chloro-1-[4-(2-chloro-3-fluoro-phenyl)-cyclohexyl]-5-methyl-5,6-dihydro-4H-2,3,5,10b-tetraaza-benzo[e]azulene] | 3.09 | – |
| CC(C)(C)OC(=O)N1Cc2cc(Cl)ccc2-n2c(nnc2[C@H]2CC[C@H](c3cccc4ccccc43)CC2)C1 [Example 19, trans-8-Chloro-1-(4-naphthalen-1-yl-cyclohexyl)-4H,6H-2,3,5,10b-tetraaza-benzo[e]azulene-5-carboxylic acid tert-butyl ester] | – | 6.03 |
| Clc1ccc2c(c1)CNCc1nnc([C@H]3CC[C@H](c4cccc5ccccc54)CC3)n1-2 [Example 20, trans-8-Chloro-1-(4-naphthalen-1-yl-cyclohexyl)-5,6-dihydro-4H-2,3,5,10b-tetraaza-benzo[e]azulene hydrochloride] | 20.4 | – |
| CN1Cc2cc(Cl)ccc2-n2c(nnc2[C@H]2CC[C@H](c3cccc4ccccc43)CC2)C1 [Example 21, trans-8-Chloro-5-methyl-1-(4-naphthalen-1-yl-cyclohexyl)-5,6-dihydro-4H-2,3,5,10b-tetraaza-benzo[e]azulene] | 7.59 | – |
| COc1ccc(F)cc1[C@H]1CC[C@H](c2nnc3n2-c2ccc(Cl)cc2CN(C(=O)OC(C)(C)C)C3)CC1 [Example 22, trans-8-Chloro-1-[4-(5-fluoro-2-methoxy-phenyl)-cyclohexyl]-4H,6H-2,3,5,10b-tetraaza-benzo[e]azulene-5-carboxylic acid tert-butyl ester] | 11.2 | – |
| COc1ccc(F)cc1[C@H]1CC[C@H](c2nnc3n2-c2ccc(Cl)cc2CNC3)CC1 [Example 23, trans-8-Chloro-1-[4-(5-fluoro-2-methoxy-phenyl)-cyclohexyl]-5,6-dihydro-4H-2,3,5,10b-tetraaza-benzo[e]azulene hydrochloride] | 42.7 | – |
| COc1ccc(F)cc1[C@H]1CC[C@H](c2nnc3n2-c2ccc(Cl)cc2CN(C)C3)CC1 [Example 24, trans-8-Chloro-1-[4-(5-fluoro-2-methoxy-phenyl)-cyclohexyl]-5-methyl-5,6-dihydro-4H-2,3,5,10b-tetraaza-benzo[e]azulene] | 5.75 | – |
| CC(C)(C)OC(=O)N1Cc2cc(Cl)ccc2-n2c(nnc2[C@H]2CC[C@H](c3cccc(C#N)c3)CC2)C1 [Example 25, trans-8-Chloro-1-[4-(3-cyano-phenyl)-cyclohexyl]-4H,6H-2,3,5,10b-tetraaza-benzo[e]azulene-5-carboxylic acid tert-butyl ester] | – | 7.08 |
| N#Cc1cccc([C@H]2CC[C@H](c3nnc4n3-c3ccc(Cl)cc3CNC4)CC2)c1 [Example 26, trans-3-[4-(8-Chloro-5,6-dihydro-4H-2,3,5,10b-tetraaza-benzo[e]azulen-1-yl)-cyclohexyl]-benzonitrile hydrochloride] | 32.4 | – |
| CN1Cc2cc(Cl)ccc2-n2c(nnc2[C@H]2CC[C@H](c3cccc(C#N)c3)CC2)C1 [Example 27, trans-3-[4-(8-Chloro-5-methyl-5,6-dihydro-4H-2,3,5,10b-tetraaza-benzo[e]azulen-1-yl)-cyclohexyl]-benzonitrile] | 2.69 | – |
| CC(=O)N1Cc2cc(Cl)ccc2-n2c(nnc2[C@H]2CC[C@H](c3ccccc3)CC2)C1 [Example 28, trans-1-[8-Chloro-1-(4-phenyl-cyclohexyl)-4H,6H-2,3,5,10b-tetraaza-benzo[e]azulen-5-yl]-ethanone] | 1.29 | – |
| CS(=O)(=O)N1Cc2cc(Cl)ccc2-n2c(nnc2[C@H]2CC[C@H](c3ccccc3)CC2)C1 [Example 29, trans-8-Chloro-5-methanesulfonyl-1-(4-phenyl-cyclohexyl)-5,6-dihydro-4H-2,3,5,10b-tetraaza-benzo[e]azulene] | 1.82 | – |
